The results in this text go back to patent publication US8178552B2, “7-Azaindole derivatives and their use in the inhibition of c-Jun N-terminal kinase” (Eisai R&D Management Co., Ltd., priority 2008, dated 2012).

Chain of JNK3 (P53779 whole entry, species assumed): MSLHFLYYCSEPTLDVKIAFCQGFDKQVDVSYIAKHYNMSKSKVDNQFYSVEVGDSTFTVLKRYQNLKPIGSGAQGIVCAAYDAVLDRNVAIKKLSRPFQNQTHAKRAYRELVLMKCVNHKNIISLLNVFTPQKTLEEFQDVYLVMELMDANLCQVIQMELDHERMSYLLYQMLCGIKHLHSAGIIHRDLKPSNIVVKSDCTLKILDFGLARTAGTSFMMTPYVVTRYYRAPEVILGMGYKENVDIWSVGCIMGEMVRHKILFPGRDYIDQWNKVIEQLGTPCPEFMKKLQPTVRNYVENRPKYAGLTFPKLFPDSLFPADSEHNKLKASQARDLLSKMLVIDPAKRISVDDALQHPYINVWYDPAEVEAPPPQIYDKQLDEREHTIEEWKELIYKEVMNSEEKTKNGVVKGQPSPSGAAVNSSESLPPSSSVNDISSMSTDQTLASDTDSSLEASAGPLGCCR

The target in the assay is JNK3 (Homo sapiens, UniProt P53779). As to the kind of experiment: JNK3 SPA assay. The class given is biochemical. As to conditions: 3.33 μM ATP, GST-c-Jun substrate; read-out: IC50 against JNK3. The procedure:
JNK1, JNK2, JNK3—SPA Assay
JNK1, JNK2, JNK3—SPA Assay • 1. Compound is dissolved in DMSO to a convenient concentration and this is diluted in 10% DMSO to a five times concentrate of the desired starting concentration (frequently 1:100). • 2. 10 μl of 500 mM EDTA is added to alternative wells of the Opti-plate row, which will receive kinase reaction plus DMSO. This creates the negative control. • 3. For the JNK2 and JNK3 assay, compounds are prepared in six 2-fold dilutions with water and each concentration is tested in duplicate. For the JNK1 assay compounds are prepared in four 5-fold dilutions with water which are tested in triplicate. Controls are treated identically. • 4. 20 μl per well of each compound concentration is transferred to an Opti-plate, in duplicate. • 5. 30 μl (JNK2/3 SPA) or 50 μl (JNK1 SPA) of substrate solution (25 mM HEPES pH 7.5, 10 mM magnesium acetate with 3.33 μM ATP (JNK2/3) or 2 μM ATP (JNK1), approximately 7.5 kBq [γ-^33P] ATP, GST-c-Jun, in water) is added to each well. • 6. 50 μl (JNK2/3 SPA) or 30 μl (JNK1 SPA) of kinase solution (JNK in 25 mM HEPES pH 7.5, 10 mM Mg Acetate) is added to each well.
• 7. The plate is incubated for 30 minutes at room temperature. • 8. 100 μl of bead/stop solution is added to each well (5 mg/ml glutathione-PVT-SPA beads, 40 mM ATP in PBS). • 9. Plates are sealed and incubated for 30 minutes at room temperature, centrifuged for 10 minutes at 2500 g and counted. • 10. The IC50 values are calculated as the concentration of the compound being tested at which the phosphorylation of c-Jun is decreased to 50% of the control value.
Turning to `C[C@H]1COCCN1[C@H]1CC[C@H](c2cnc3[nH]cc(-c4cnn(C)c4)c3c2)CC1` [Compound I-103, (S)-3-methyl-4-((1r,4S)-4-(3-(1-methyl-1H-pyrazol-4-yl)-1H-pyrrolo[2,3-b]pyridin-5-yl)cyclohexyl)morpholine], the IC50 (in general, the midpoint of a concentration-inhibition curve) was 0.263 µM.

Consider `C[C@H]1COCCN1[C@H]1CC[C@@H](c2cnc3[nH]cc(-c4cnn(C)c4)c3c2)CC1` [Compound I-104, (S)-3-methyl-4-((1s,4R)-4-(3-(1-methyl-1H-pyrazol-4-yl)-1H-pyrrolo[2,3-b]pyridin-5-yl)cyclohexyl)morpholine], for which the 50% inhibitory concentration (IC50) is 0.138 µM.

On to `CC(C)N[C@H]1CC[C@H](c2cnc3[nH]cc(-c4cnn(C)c4)c3c2)CC1` [Compound I-105, (1r,4r)-N-isopropyl-4-(3-(1-methyl-1H-pyrazol-4-yl)-1H-pyrrolo[2,3-b]pyridin-5-yl)cyclohexanamine], for which the IC50 came out at 0.32 µM.

For `CCOCCN(CC)[C@H]1CC[C@H](c2cnc3[nH]cc(-c4cnn(C)c4)c3c2)CC1` [Compound I-107, (1r,4r)-N-(2-ethoxyethyl)-N-ethyl-4-(3-(1-methyl-1H-pyrazol-4-yl)-1H-pyrrolo[2,3-b]pyridin-5-yl)cyclohexanamine], the IC50 was determined as 0.288 µM.

In the case of `CCOCCN(CC)[C@H]1CC[C@@H](c2cnc3[nH]cc(-c4cnn(C)c4)c3c2)CC1` [Compound I-108, (1s,4s)-N-(2-ethoxyethyl)-N-ethyl-4-(3-(1-methyl-1H-pyrazol-4-yl)-1H-pyrrolo[2,3-b]pyridin-5-yl)cyclohexanamine], the IC50 is 0.204 µM.

Consider `CCN(C)[C@H]1CC[C@H](c2cnc3[nH]cc(-c4cnn(C)c4)c3c2)CC1` [Compound I-109, (1r,4r)-N-ethyl-N-methyl-4-(3-(1-methyl-1H-pyrazol-4-yl)-1H-pyrrolo[2,3-b]pyridin-5-yl)cyclohexanamine], for which the half-maximal inhibitory concentration (IC50) is 0.302 µM.

Consider `CCN(C)[C@H]1CC[C@@H](c2cnc3[nH]cc(-c4cnn(C)c4)c3c2)CC1` [Compound I-110, (1s,4s)-N-ethyl-N-methyl-4-(3-(1-methyl-1H-pyrazol-4-yl)-1H-pyrrolo[2,3-b]pyridin-5-yl)cyclohexanamine], for which the IC50 was determined as 0.355 µM.

Turning to `COCCN[C@H]1CC[C@H](c2cnc3[nH]cc(-c4cnn(C)c4)c3c2)CC1` [Compound I-111, (1r,4r)-N-(2-methoxyethyl)-4-(3-(1-methyl-1H-pyrazol-4-yl)-1H-pyrrolo[2,3-b]pyridin-5-yl)cyclohexanamine], the IC50 is 0.263 µM.

With `CCCN(CC)[C@H]1CC[C@H](c2cnc3[nH]cc(-c4cnn(C)c4)c3c2)CC1` [Compound I-113, (1r,4r)-N-ethyl-4-(3-(1-methyl-1H-pyrazol-4-yl)-1H-pyrrolo[2,3-b]pyridin-5-yl)-N-propylcyclohexanamine], the half-inhibitory concentration (IC50) was 0.316 µM.

On to `CCCN(CC)[C@H]1CC[C@@H](c2cnc3[nH]cc(-c4cnn(C)c4)c3c2)CC1` [Compound I-114, (1s,4s)-N-ethyl-4-(3-(1-methyl-1H-pyrazol-4-yl)-1H-pyrrolo[2,3-b]pyridin-5-yl)-N-propylcyclohexanamine], for which the IC50 was determined as 0.224 µM.

As to `CCCN(C)[C@H]1CC[C@H](c2cnc3[nH]cc(-c4cnn(C)c4)c3c2)CC1` [Compound I-115, (1r,4r)-N-methyl-4-(3-(1-methyl-1H-pyrazol-4-yl)-1H-pyrrolo[2,3-b]pyridin-5-yl)-N-propylcyclohexanamine], the 50% inhibitory concentration (IC50) was 0.347 µM.

`CCCN(C)[C@H]1CC[C@@H](c2cnc3[nH]cc(-c4cnn(C)c4)c3c2)CC1` [Compound I-116, (1s,4s)-N-methyl-4-(3-(1-methyl-1H-pyrazol-4-yl)-1H-pyrrolo[2,3-b]pyridin-5-yl)-N-propylcyclohexanamine]: the IC50 amounted to 0.309 µM.

Regarding `COCCN(C)[C@H]1CC[C@H](c2cnc3[nH]cc(-c4cnn(C)c4)c3c2)CC1` [Compound I-117, (1r,4r)-N-(2-methoxyethyl)-N-methyl-4-(3-(1-methyl-1H-pyrazol-4-yl)-1H-pyrrolo[2,3-b]pyridin-5-yl)cyclohexanamine], the IC50 stood at 0.288 µM.

As for `COCCN(C)[C@H]1CC[C@@H](c2cnc3[nH]cc(-c4cnn(C)c4)c3c2)CC1` [Compound I-118, (1s,4s)-N-(2-methoxyethyl)-N-methyl-4-(3-(1-methyl-1H-pyrazol-4-yl)-1H-pyrrolo[2,3-b]pyridin-5-yl)cyclohexanamine], the IC50 turned out to be 0.257 µM.

Take `CCOCCN[C@H]1CC[C@H](c2cnc3[nH]cc(-c4cnn(C)c4)c3c2)CC1` [Compound I-119, (1r,4r)-N-(2-ethoxyethyl)-4-(3-(1-methyl-1H-pyrazol-4-yl)-1H-pyrrolo[2,3-b]pyridin-5-yl)cyclohexanamine]: the IC50 is 0.257 µM.

On to `CCCN(CCOC)[C@H]1CC[C@H](c2cnc3[nH]cc(-c4cnn(C)c4)c3c2)CC1` [Compound I-121, (1r,4r)-N-(2-methoxyethyl)-4-(3-(1-methyl-1H-pyrazol-4-yl)-1H-pyrrolo[2,3-b]pyridin-5-yl)-N-propylcyclohexanamine], for which the concentration for half-maximal inhibition (IC50) was 0.363 µM.

Consider `CCCN(CCOC)[C@H]1CC[C@@H](c2cnc3[nH]cc(-c4cnn(C)c4)c3c2)CC1` [Compound I-122, (1s,4s)-N-(2-methoxyethyl)-4-(3-(1-methyl-1H-pyrazol-4-yl)-1H-pyrrolo[2,3-b]pyridin-5-yl)-N-propylcyclohexanamine], for which the half-maximal inhibitory concentration (IC50) worked out at 0.295 µM.

Consider `CCN(CCOC)[C@H]1CC[C@H](c2cnc3[nH]cc(-c4cnn(C)c4)c3c2)CC1` [Compound I-123, (1r,4r)-N-ethyl-N-(2-methoxyethyl)-4-(3-(1-methyl-1H-pyrazol-4-yl)-1H-pyrrolo[2,3-b]pyridin-5-yl)cyclohexanamine], for which the concentration for half-maximal inhibition (IC50) amounted to 0.323 µM.

As for `CCN(CCOC)[C@H]1CC[C@@H](c2cnc3[nH]cc(-c4cnn(C)c4)c3c2)CC1` [Compound I-124, (1s,4s)-N-ethyl-N-(2-methoxyethyl)-4-(3-(1-methyl-1H-pyrazol-4-yl)-1H-pyrrolo[2,3-b]pyridin-5-yl)cyclohexanamine], the IC50 was found to be 0.257 µM.

For the compound `CCCN(CCO)[C@H]1CC[C@H](c2cnc3[nH]cc(-c4cnn(C)c4)c3c2)CC1` [Compound I-125, 2-(((1r,4r)-4-(3-(1-methyl-1H-pyrazol-4-yl)-1H-pyrrolo[2,3-b]pyridin-5-yl)cyclohexyl)(propyl)amino)ethanol], the half-inhibitory concentration (IC50) came out at 0.263 µM.

For `CCCN(CCO)[C@H]1CC[C@@H](c2cnc3[nH]cc(-c4cnn(C)c4)c3c2)CC1` [Compound I-126, 2-(((1s,4s)-4-(3-(1-methyl-1H-pyrazol-4-yl)-1H-pyrrolo[2,3-b]pyridin-5-yl)cyclohexyl)(propyl)amino)ethanol], the IC50 was determined as 0.281 µM.

For the compound `Cn1cc(-c2c[nH]c3ncc([C@H]4CC[C@H](NC5CCOCC5)CC4)cc23)cn1` [Compound I-127, N-((1 r,4r)-4-(3-(1-methyl-1H-pyrazol-4-yl)-1H-pyrrolo[2,3-b]pyridin-5-yl)cyclohexyl)tetrahydro-2H-pyran-4-amine], the 50% inhibitory concentration (IC50) came to 0.398 µM.

Consider `Cn1cc(-c2c[nH]c3ncc([C@H]4CC[C@@H](NC5CCOCC5)CC4)cc23)cn1` [Compound I-128, N-((1s,4s)-4-(3-(1-methyl-1H-pyrazol-4-yl)-1H-pyrrolo[2,3-b]pyridin-5-yl)cyclohexyl)tetrahydro-2H-pyran-4-amine], for which the half-inhibitory concentration (IC50) came to 0.794 µM.

Consider `Cn1cc(-c2c[nH]c3ncc([C@H]4CC[C@H](NCCO)CC4)cc23)cn1` [Compound I-129, 2-((1r,4r)-4-(3-(1-methyl-1H-pyrazol-4-yl)-1H-pyrrolo[2,3-b]pyridin-5-yl)cyclohexylamino)ethanol], for which the IC50 was found to be 0.191 µM.

Regarding `Cn1cc(-c2c[nH]c3ncc([C@H]4CC[C@@H](NCCO)CC4)cc23)cn1` [Compound I-130, 2-((1s,4s)-4-(3-(1-methyl-1H-pyrazol-4-yl)-1H-pyrrolo[2,3-b]pyridin-5-yl)cyclohexylamino)ethanol], the IC50 came to 0.692 µM.

In the case of `Cn1cc(-c2c[nH]c3ncc(C4=CC5CC[C@]4(C)C5(C)C)cc23)cn1` [Compound I-138, 3-(1-methyl-1H-pyrazol-4-yl)-5-((1R)-1,7,7-trimethylbicyclo[2.2.1]hept-2-en-2-yl)-1H-pyrrolo[2,3-b]pyridine], the IC50 came to 0.148 µM.

Turning to `Cn1cc(-c2c[nH]c3ncc(C4CC5CC4C(CO)C5CO)cc23)cn1` (centres unmarked) [Compound I-140, (5-(3-(1-methyl-1H-pyrazol-4-yl)-1H-pyrrolo[2,3-b]pyridin-5-yl)bicyclo[2.2.1]heptane-2,3-diyl)dimethanol], the IC50 was determined as 0.087 µM.

Regarding `Cn1cc(-c2c[nH]c3ncc(C4CCCC5C4C5(C)C)cc23)cn1` (centres unmarked) [Compound I-142, 5-(7,7-dimethylbicyclo[4.1.0]heptan-2-yl)-3-(1-methyl-1H-pyrazol-4-yl)-1H-pyrrolo[2,3-b]pyridine], the 50% inhibitory concentration (IC50) was 0.155 µM.

As for `CN1C2C=C(c3cnc4[nH]cc(-c5cnn(C)c5)c4c3)CC1CC2` (centres unmarked) [Compound I-143, 3-(1-methyl-1H-pyrazol-4-yl)-5-(8-methyl-8-azabicyclo[3.2.1]oct-3-en-3-yl)-1H-pyrrolo[2,3-b]pyridine], the IC50 was greater than 0.5 µM.
